According to PubChem BioAssay (NCI):
Values joined by “and” are separate entries in the source; they are usually repeats but may differ in a detail not shown here. Equal values may be shown once.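 In this assay, cells in 96-well plates receive the compound at five concentrations for 48 hours. Endpoints are linearly interpolated between the surrounding concentrations. TGI denotes the concentration required for complete inhibition of growth.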

Columns and labels:
Assay in all cases: DTP human tumour cell line panel, 48 h
[1] = test system: MDA-MB-231 breast
[2] = test system: HS 578T breast
[3] = test system: HCC-2998 colon
[4] = test system: NCI-H226 lung
[5] = test system: SR leukemia

Structure (SMILES)	TGI [1]	TGI [2]	TGI [3]	TGI [4]	TGI [5]
O=C1c2cccnc2-c2nccc3c2c1nc1cc(Br)ccc13	0.876 µM	0.942 µM	1.63 µM	0.855 µM	0.0617 µM
C=C(Cl)C(C)(Cl)CCC(Br)C(C)(C)Cl (centres undefined)	28.7 µM	57.8 µM	34.2 µM	> 100 µM	93.6 µM
COC(=O)C1=C(C)NC(C)=C(C(=O)OC)C1c1nc2sccn2c1[N+](=O)[O-]	> 100 µM	> 100 µM	> 100 µM	> 100 µM	> 100 µM
COc1ccc(N2C(=O)CSC2c2c[nH]c3ccccc23)cc1 (centres undefined)	> 100 µM		> 100 µM		> 100 µM
Nc1ccc(C(=O)N2CCC[C@H]2CO)c(N)c1	> 100 µM	> 100 µM	> 100 µM	> 100 µM	> 100 µM
C=CCOc1ccc(C2(O)c3ccccc3C3=NCCCN32)cc1 (centres undefined)	> 100 µM	> 100 µM	43.3 µM	> 100 µM	> 78.8 µM
Cn1c2ccccc2c(=O)c2cccc(C(=O)NC(CCCN=C(N)N)C(=O)O)c21 (centres undefined)	> 100 µM	> 100 µM	> 100 µM	> 100 µM	
COc1ccc2c(c1)CCN1CCc3ccccc3CC21 (centres undefined)	> 100 µM	> 100 µM	48.1 µM	83.5 µM	> 100 µM
CCC(=O)ONC(=O)Cn1ccc([N+](=O)[O-])n1	> 100 µM	> 100 µM	> 100 µM	> 100 µM	> 100 µM
O=C(O)/C=c1/c2ccccc2n2nc3ccccc3c12	> 100 µM	78.8 µM	84.9 µM		49.2 µM
Nc1[nH]nc2nc3ccc(C(F)(F)F)cc3nc12	> 100 µM	> 100 µM	> 100 µM		> 100 µM
O=[N+]([O-])/C(C(Cl)=C(Cl)Cl)=C(\N1CCCCC1)n1cncn1	30.1 µM	28.2 µM	40.5 µM	40.3 µM	> 100 µM
Cn1c2ccccc2c(=NNc2cccc(C(=O)O)c2)c2ccccc21	41 µM	64.7 µM	14.9 µM	48.6 µM	
CN1[C@@H]2C[C@@H](OC(=O)[C@H](CO)c3ccccc3)C[C@H]1[C@@H]1O[C@@H]12	> 100 µM	> 100 µM		> 100 µM	> 100 µM
COc1nc2nccnc2c(=O)n1C	> 10 µM	> 10 µM	> 10 µM	> 10 µM	> 10 µM
CC(=O)NC1c2ccccc2C(C)(C)C12CCC1(CC2)OCCO1 (centres undefined)	> 100 µM	> 100 µM	> 100 µM	> 100 µM	> 100 µM
CC1=NNC(=O)C1C(CC(=O)c1c[nH]c2ccccc12)C(=O)O (centres undefined)	> 100 µM	> 100 µM		> 100 µM	
CN(C)CCOC1(Cc2ccc(F)cc2)CCC(C(C)(C)C)CC1 (centres undefined)	23.8 µM and 22.9 µM	32.3 µM and 28 µM	12.3 µM and 12.7 µM	27.5 µM and 26.8 µM	8.37 µM and 6.34 µM
C=C1C(=O)C=C[C@]2(C)CC[C@H]3C(=C)C(=O)O[C@@H]3[C@@H]12	11.7 µM	48.8 µM			6.11 µM

Structure (SMILES)	TGI [1]	TGI [2]	TGI [3]	TGI [4]	TGI [5]
CN1COCc2c1ccc1cc3ccc4c(c3nc21)COCN4S(C)(=O)=O	> 100 µM	> 100 µM	> 100 µM	> 100 µM	> 100 µM
CC(C)(C)OC(=O)NCCCNC1(c2cc3ccccc3s2)CCCCC1	40.1 µM	45.7 µM	14.3 µM	46.1 µM	28 µM
Cc1ccc(S(=O)(=O)NC(=O)N[C@@H](Cc2cnc[nH]2)C(=O)O)cc1	> 100 µM	> 100 µM			
Cc1cc(NCc2ccccc2)c2ccccc2[n+]1CCCCCCCCCC[n+]1c(C)cc(NCc2ccccc2)c2ccccc21	1.74 µM	11.6 µM	1.79 µM		
On1c(-c2ccccc2)nc2ccccc2c1=S	> 100 µM	> 100 µM	> 100 µM	> 100 µM	
CC(C(O)Cc1ccccc1)N(C)N=Nc1ccc([N+](=O)[O-])cc1 (centres undefined)	33.7 µM	55.6 µM	32.2 µM	39.5 µM	
Nc1ccc(S(=O)(=O)Nc2nccs2)cc1	> 100 µM		> 100 µM	> 100 µM	> 100 µM
COc1ccc(/C=C2\N=C(SC)NC2=O)cc1	> 100 µM	> 100 µM	> 100 µM	> 100 µM	
NC(CCC(=O)NC(CSCC1C(=O)Nc2ccccc21)C(=O)NCC(=O)O)C(=O)O (centres undefined)	18.9 µM	> 100 µM	10.6 µM	21.9 µM	2.51 µM
Nc1nc(Cl)cc(NCC2(CO)CCCC2)n1	> 100 µM	> 100 µM	> 100 µM	> 100 µM	> 100 µM
C=CC[C@]12C=C(OC)[C@@H](O)[C@](OC)(C(c3cc(OC)c4c(c3)OCO4)[C@H]1C)[C@H]2OC(C)=O (some centres undefined)	> 100 µM	> 100 µM	> 100 µM	> 100 µM	> 100 µM
CC(C)CC(O)P(=O)(O)O (centres undefined)	> 100 µM		> 100 µM	> 100 µM	
Cc1ccc(O)c(-c2cscn2)c1		> 100 µM	> 100 µM		> 100 µM
O=C1/C(=C/c2ccc(Cl)cc2)CSc2ccccc21	55.9 µM	75.5 µM		45.2 µM	> 100 µM
O=c1oc2ccc([N+](=O)[O-])cc2c(Nc2ccc3c(c2)Oc2ccccc2O3)c1[N+](=O)[O-]	37 µM	> 100 µM	66.4 µM	87.1 µM	72.4 µM
CCOC(=O)C1C2CCC1CC(=NNc1ccc([N+](=O)[O-])cc1[N+](=O)[O-])C2 (centres undefined)	> 50 µM		> 50 µM	> 50 µM	> 50 µM
CCOC(=O)NC(Nc1cccc(C(F)(F)F)c1)(C(F)(F)F)C(F)(F)F	> 100 µM	> 100 µM	> 100 µM	> 100 µM	> 100 µM
NNC(=O)CSc1nc2ccccc2c(=O)n1N	61.2 µM	98.8 µM	> 100 µM	> 100 µM	> 100 µM
